In PubChem BioAssay AID1918996 (Molecular Pharmacology Branch, DTP, NCI, 2023):

Tested on: 349418-098-R-PDC complex spheroid growth
Assay: Anticancer human tumor 349418-098-R-PDC patient-derived lung adenocarcinoma cell line growth inhibition [AhR]
Conditions: for IC50: curve of first compound; for viability, T/C: stronger effect = lower value; active = viability on the fitted dose curve at most 10% of control; inactive = the rest
Outline: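 Spheroids combined tumor cells with HUVEC endothelial cells and human MSCs as stroma. AhR antagonists were paired with standard or investigational drugs, each dosed in half-log steps down from near clinical Cmax, or from 10 microM where Cmax was unknown.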

[1] = second compound 0.1 µM, first compound 0.0316 µM
[2] = second compound 0.1 µM, first compound 0.1 µM
[3] = second compound 0.1 µM, first compound 0.316 µM
[4] = second compound 0.1 µM, first compound 1 µM
[5] = second compound 0.316 µM, first compound 0.0316 µM
[6] = second compound 0.316 µM, first compound 0.1 µM
[7] = second compound 0.316 µM, first compound 0.316 µM
[8] = second compound 0.316 µM, first compound 1 µM
[9] = second compound 1 µM, first compound 0.0316 µM
[10] = second compound 1 µM, first compound 0.1 µM
[11] = second compound 1 µM, first compound 0.316 µM
[12] = second compound 1 µM, first compound 1 µM
[13] = second compound 3.16 µM, first compound 0.0316 µM
[14] = second compound 3.16 µM, first compound 0.1 µM
[15] = second compound 3.16 µM, first compound 0.316 µM
[16] = second compound 3.16 µM, first compound 1 µM
[17] = second compound 10 µM, first compound 0.0316 µM
[18] = second compound 10 µM, first compound 0.1 µM
[19] = second compound 10 µM, first compound 0.316 µM
[20] = second compound 10 µM, first compound 1 µM
[21] = second compound 0.1 µM, first compound 3.16 µM
[22] = second compound 0.1 µM, first compound 10 µM
[23] = second compound 0.316 µM, first compound 3.16 µM
[24] = second compound 0.316 µM, first compound 10 µM
[25] = second compound 1 µM, first compound 3.16 µM
[26] = second compound 1 µM, first compound 10 µM
[27] = second compound 3.16 µM, first compound 3.16 µM
[28] = second compound 3.16 µM, first compound 10 µM
[29] = second compound 10 µM, first compound 3.16 µM
[30] = second compound 10 µM, first compound 10 µM
[31] = second compound 0.1 µM, first compound 0.00949 µM
[32] = second compound 0.1 µM, first compound 0.03 µM
[33] = second compound 0.1 µM, first compound 0.0949 µM
[34] = second compound 0.1 µM, first compound 0.3 µM
[35] = second compound 0.316 µM, first compound 0.00949 µM
[36] = second compound 0.316 µM, first compound 0.03 µM
[37] = second compound 0.316 µM, first compound 0.0949 µM
[38] = second compound 0.316 µM, first compound 0.3 µM
[39] = second compound 1 µM, first compound 0.00949 µM
[40] = second compound 1 µM, first compound 0.03 µM
[41] = second compound 1 µM, first compound 0.0949 µM
[42] = second compound 1 µM, first compound 0.3 µM
[43] = second compound 3.16 µM, first compound 0.00949 µM
[44] = second compound 3.16 µM, first compound 0.03 µM
[45] = second compound 3.16 µM, first compound 0.0949 µM
[46] = second compound 3.16 µM, first compound 0.3 µM
[47] = second compound 10 µM, first compound 0.00949 µM
[48] = second compound 10 µM, first compound 0.03 µM
[49] = second compound 10 µM, first compound 0.0949 µM
[50] = second compound 10 µM, first compound 0.3 µM
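Note: spheroids exposed to agents for seven days before luminescence viability read.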
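Throughout, for viability, T/C: spheroids also contain HUVEC endothelial cells and human MSC stroma.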

CC1COCCN1c1cc(-c2ccnn2C)c2ccnc(-c3ccn[nH]3)c2n1 (stereo not given) + Cc1cncc(-c2nc(NCCc3c[nH]c4ccccc34)c3ncn(C(C)C)c3n2)c1
active: viability, T/C [4] 7.48% | viability, T/C [8] 7.2% | viability, T/C [14] 7.18% | viability, T/C [15] 6.8% | viability, T/C [16] 5.72% | viability, T/C (second compound 10 µM, first compound 0.00316 µM) 0.74% | viability, T/C (second compound 10 µM, first compound 0.01 µM) 0.66% | viability, T/C [17] 0.7% | viability, T/C [18] 0.73% | viability, T/C [19] 0.69% | viability, T/C [20] 1.49%
153 nM: IC50 (second compound 0.1 µM)
inactive: viability, T/C (second compound 0.1 µM, first compound 0.00316 µM) 105% | viability, T/C (second compound 0.1 µM, first compound 0.01 µM) 105% | viability, T/C [1] 99.7% | viability, T/C [2] 71.6% | viability, T/C [3] 13.1% | viability, T/C (second compound 0.316 µM, first compound 0.00316 µM) 90.9% | viability, T/C (second compound 0.316 µM, first compound 0.01 µM) 92.4% | viability, T/C [5] 91.4% | viability, T/C [6] 68.5% | viability, T/C [7] 15.7% | viability, T/C (second compound 1 µM, first compound 0.00316 µM) 74.1% | viability, T/C (second compound 1 µM, first compound 0.01 µM) 81.4% | viability, T/C [9] 81.5% | viability, T/C [10] 50.1% | viability, T/C [11] 13.2% | viability, T/C [12] 8.54% | viability, T/C (second compound 3.16 µM, first compound 0.00316 µM) 14.2% | viability, T/C (second compound 3.16 µM, first compound 0.01 µM) 15.1% | viability, T/C [13] 12.4%
150 nM: IC50 (second compound 0.316 µM)
101 nM: IC50 (second compound 1 µM)
< 3.16 nM: IC50 (second compound 3.16 µM) | IC50 (second compound 10 µM)

CC1COCCN1c1cc(C2(S(C)(=N)=O)CC2)nc(-c2ccnc3[nH]ccc23)n1 (stereo not given) + Cc1cncc(-c2nc(NCCc3c[nH]c4ccccc34)c3ncn(C(C)C)c3n2)c1
inactive: viability, T/C [1] 90.9% | viability, T/C [2] 97% | viability, T/C [3] 93.9% | viability, T/C [4] 99.3% | viability, T/C [21] 75.3% | viability, T/C [22] 20% | viability, T/C [5] 90.1% | viability, T/C [6] 94.2% | viability, T/C [7] 95.5% | viability, T/C [8] 89.9% | viability, T/C [23] 61.4% | viability, T/C [24] 13.6% | viability, T/C [9] 78.7% | viability, T/C [10] 72.9% | viability, T/C [11] 85.2% | viability, T/C [12] 73.4% | viability, T/C [25] 61.9% | viability, T/C [26] 15.7% | viability, T/C [13] 15.7% | viability, T/C [14] 15.9% | viability, T/C [15] 12.6% | viability, T/C [16] 12.1%
< 31.6 nM: IC50 (second compound 3.16 µM) | IC50 (second compound 10 µM)
active: viability, T/C [27] 8.67% | viability, T/C [28] 7.34% | viability, T/C [17] 2.06% | viability, T/C [18] 2.37% | viability, T/C [19] 2.46% | viability, T/C [20] 2.04% | viability, T/C [29] 2.07% | viability, T/C [30] 2.16%
4260 nM: IC50 (second compound 1 µM)
4160 nM: IC50 (second compound 0.316 µM)
5350 nM: IC50 (second compound 0.1 µM)

COc1ccc([C@@H](O)c2cc(-c3ncnc4cc(N5CCOCC5)ccc34)c(F)cc2Cl)nn1 + Cc1cncc(-c2nc(NCCc3c[nH]c4ccccc34)c3ncn(C(C)C)c3n2)c1
inactive: viability, T/C [1] 100% | viability, T/C [2] 101% | viability, T/C [3] 92.5% | viability, T/C [4] 88.8% | viability, T/C [21] 58.1% | viability, T/C [22] 16.8% | viability, T/C [5] 103% | viability, T/C [6] 94.7% | viability, T/C [7] 89.9% | viability, T/C [8] 93.3% | viability, T/C [23] 58.8% | viability, T/C [24] 14.1% | viability, T/C [9] 81% | viability, T/C [10] 79.7% | viability, T/C [11] 80.5% | viability, T/C [12] 68.2% | viability, T/C [25] 57.9% | viability, T/C [26] 19.4% | viability, T/C [13] 16.5% | viability, T/C [14] 16.7% | viability, T/C [15] 12.7% | viability, T/C [16] 12.5% | viability, T/C [27] 11.9% | viability, T/C [28] 9.7%
4010 nM: IC50 (second compound 0.1 µM)
3840 nM: IC50 (second compound 1 µM)
< 31.6 nM: IC50 (second compound 3.16 µM) | IC50 (second compound 10 µM)
active: viability, T/C [17] 0.93% | viability, T/C [18] 0.92% | viability, T/C [19] 1.03% | viability, T/C [20] 1.37% | viability, T/C [29] 1.91% | viability, T/C [30] 3.18%
3970 nM: IC50 (second compound 0.316 µM)

Nc1ncn(C2CC(O)C(CO)S2)c(=O)n1 (stereo not given) + Cc1cncc(-c2nc(NCCc3c[nH]c4ccccc34)c3ncn(C(C)C)c3n2)c1
active: viability, T/C (second compound 10 µM, first compound 0.000949 µM) 2.25% | viability, T/C (second compound 10 µM, first compound 0.003 µM) 2.66% | viability, T/C [47] 2.49% | viability, T/C [48] 2.15% | viability, T/C [49] 2.02% | viability, T/C [50] 2.32%
< 0.949 nM: IC50 (second compound 1 µM) | IC50 (second compound 10 µM)
inactive: viability, T/C (second compound 0.1 µM, first compound 0.000949 µM) 102% | viability, T/C (second compound 0.1 µM, first compound 0.003 µM) 96.7% | viability, T/C [31] 90.8% | viability, T/C [32] 74.5% | viability, T/C [33] 59.3% | viability, T/C [34] 30.7% | viability, T/C (second compound 0.316 µM, first compound 0.000949 µM) 88.6% | viability, T/C (second compound 0.316 µM, first compound 0.003 µM) 93.7% | viability, T/C [35] 83% | viability, T/C [36] 71.4% | viability, T/C [37] 59.1% | viability, T/C [38] 31.8% | viability, T/C (second compound 1 µM, first compound 0.000949 µM) 47.5% | viability, T/C (second compound 1 µM, first compound 0.003 µM) 42.5% | viability, T/C [39] 38.9% | viability, T/C [40] 37.6% | viability, T/C [41] 30.4% | viability, T/C [42] 24% | viability, T/C (second compound 3.16 µM, first compound 0.000949 µM) 70% | viability, T/C (second compound 3.16 µM, first compound 0.003 µM) 86.3% | viability, T/C [43] 94.6% | viability, T/C [44] 73.6% | viability, T/C [45] 44.7% | viability, T/C [46] 30.6%
133 nM: IC50 (second compound 0.1 µM) | IC50 (second compound 0.316 µM)
76.2 nM: IC50 (second compound 3.16 µM)

O=C(C=Cn1cnc(-c2cc(C(F)(F)F)cc(C(F)(F)F)c2)n1)NNc1cnccn1 + Cc1cncc(-c2nc(NCCc3c[nH]c4ccccc34)c3ncn(C(C)C)c3n2)c1
active: viability, T/C (second compound 0.1 µM, first compound 0.949 µM) 7.84% | viability, T/C (second compound 0.1 µM, first compound 3 µM) 4.75% | viability, T/C (second compound 0.316 µM, first compound 0.949 µM) 7.07% | viability, T/C (second compound 0.316 µM, first compound 3 µM) 4.9% | viability, T/C [42] 9.9% | viability, T/C (second compound 1 µM, first compound 0.949 µM) 9.14% | viability, T/C (second compound 1 µM, first compound 3 µM) 5.61% | viability, T/C [46] 8.17% | viability, T/C (second compound 3.16 µM, first compound 0.949 µM) 7.95% | viability, T/C (second compound 3.16 µM, first compound 3 µM) 5.5% | viability, T/C [47] 3.16% | viability, T/C [48] 2.76% | viability, T/C [49] 2.56% | viability, T/C [50] 2.42% | viability, T/C (second compound 10 µM, first compound 0.949 µM) 1.78% | viability, T/C (second compound 10 µM, first compound 3 µM) 1.96%
50.2 nM: IC50 (second compound 1 µM)
inactive: viability, T/C [31] 109% | viability, T/C [32] 76.7% | viability, T/C [33] 34.4% | viability, T/C [34] 10.9% | viability, T/C [35] 103% | viability, T/C [36] 89.4% | viability, T/C [37] 42.3% | viability, T/C [38] 11.7% | viability, T/C [39] 95.8% | viability, T/C [40] 69.8% | viability, T/C [41] 25.5% | viability, T/C [43] 31.8% | viability, T/C [44] 20.6% | viability, T/C [45] 14.7%
61.5 nM: IC50 (second compound 0.1 µM)
78.7 nM: IC50 (second compound 0.316 µM)
< 9.49 nM: IC50 (second compound 3.16 µM) | IC50 (second compound 10 µM)
